We go through 14 compounds from patent US10577362B2, “Substituted 2, 4-diamino-quinoline derivatives for use in the treatment of proliferative diseases” (GENOSCIENCE PHARMA, priority 2016, dated 2020).

Broadly, the EC50 is the concentration at which the effect is half-maximal. The term viability denotes a read-out of living cells in per cent, often relative to untreated cells.

SMILES strings stand for the structures. Structures can show the parent of a compound that is named as a salt.

What all share (assay type): cell-based, human
Experiment [1] deals with MOLM-14 (acute myeloid leukemia) cell line. The experiment in a line: CellTiter-Glo luminescent cell viability assay, MOLM-14. The following applies: Homo sapiens; for EC50: MOLM-14 cell line, 72 h incubation, CellTiter-Glo, read-out: EC50, growth inhibition of MOLM-14; for viability at 4 µM: MOLM-14, compound at 4 μM; for viability at 4 µM / viability at 10 µM: 72 h; for viability at 10 µM: MOLM-14, compound at 10 μM. The method, boiled down: (§1)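 In a 72 h viability assay, compound-treated cells were compared against matched H2O or DMSO diluent controls by luminescence, points in at least duplicate.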
In general terms: ATP-based viability assays read luminescence as a measure of living cells.

Experiment [2] concerns HCT-116 (colorectal carcinoma) cell line. The experiment in a line: CellTiter-Glo luminescent cell viability assay, HCT-116. Particulars: Homo sapiens; for EC50: HCT-116 cell line, 72 h incubation, CellTiter-Glo, read-out: EC50, growth inhibition of HCT-116; for viability at 4 µM: HCT-116, compound at 4 μM; for viability at 4 µM / viability at 10 µM: 72 h; for viability at 10 µM: HCT-116, compound at 10 μM. The method, boiled down: (§2)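 Luminescent signal, normalised to diluent-treated cultures, defines % viability; EC50 is the concentration lowering it to 50%. Cells had been exposed to compound for 72 h at 37 °C in medium with 10% FBS, at a constant H2O or DMSO percentage.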

Experiment [3] concerns 786-O (renal adenocarcinoma) cell line. The experiment in a line: CellTiter-Glo luminescent cell viability assay, 786-O. Particulars: Homo sapiens, 786-0; for EC50: 786-O cell line, 72 h incubation, CellTiter-Glo, read-out: EC50, growth inhibition of 786-O; for viability at 4 µM / viability at 10 µM: 786-O, 72 h; for viability at 4 µM: compound at 4 μM; for viability at 10 µM: compound at 10 μM. The method, boiled down:
as §2

The subject of experiment [4] is Huh7 (hepatocellular carcinoma) cell line. In words: CellTiter-Glo luminescent cell viability assay, Huh7. The following applies: Homo sapiens, Huh-7; for EC50: Huh7 cell line, 72 h incubation, CellTiter-Glo, read-out: EC50, growth inhibition of Huh7; for viability at 4 µM: Huh7, compound at 4 μM; for viability at 4 µM / viability at 10 µM: 72 h; for viability at 10 µM: Huh7, compound at 10 μM. The method, boiled down: as §1

Experiment [5] has as its system A375 (malignant melanoma) cell line. In words: CellTiter-Glo luminescent cell viability assay, A375. Particulars: Homo sapiens, A-375; for EC50: A375 cell line, 72 h incubation, CellTiter-Glo, read-out: EC50, growth inhibition of A375; for viability at 4 µM: A375, compound at 4 μM; for viability at 4 µM / viability at 10 µM: 72 h; for viability at 10 µM: A375, compound at 10 μM. The method, boiled down: as §2

The subject of experiment [6] is HepG2 (hepatocellular carcinoma) cell line. The experiment in a line: CellTiter-Glo luminescent cell viability assay, HepG2. Particulars: Homo sapiens; for EC50: HepG2 cell line, 72 h incubation, CellTiter-Glo, read-out: EC50, growth inhibition of HepG2; for viability at 4 µM / viability at 10 µM: HepG2, HepG, 72 h; for viability at 4 µM: compound at 4 μM; for viability at 10 µM: compound at 10 μM. The method, boiled down: as §1

As to `Cc1ccnc(Nc2ccc(Nc3nc4ccccc4c(N4CCC(NC(C)(C)C)CC4)c3C#N)cc2C)n1` [Compound 500CN, 2-[4-(4-methyl-2-pyrimidinamino)-3-methyl-phenylamino]-3-cyano-4-(4-tert-butylaminopiperidin-1-yl)-quinoline], the concentration giving a half-maximal response (EC50) was in the range of 5 to 10 µM in experiment [1]; 0.5 to 5 µM in experiment [2]; 5 to 10 µM in experiment [3]; 5 to 10 µM in experiment [4]; 5 to 10 µM in experiment [5]; 5 to 10 µM in experiment [6].

Turning to `Clc1ccc(CNc2cc(N3CC(N4CCOCC4)C3)c3ccccc3n2)cc1` [Compound 118, 2-(4-chlorobenzylamino)-4-[3-(morpholin-4-yl)azetidin-1-yl]quinoline hydrochloride], the EC50 was 5 to 10 µM in experiment [1]; 5 to 10 µM in experiment [2]; 0.5 to 5 µM in experiment [3]; 5 to 10 µM in experiment [4]; 5 to 10 µM in experiment [5]; 5 to 10 µM in experiment [6].

On to `CC(C)CN(Cc1ccc(Cl)cc1)c1cc(N2CCC(NC(C)(C)C)CC2)c2ccccc2n1` [Compound 220, 2-(N-4-chlorobenzyl-N-isobutylamino)-4-[4-(tert-butylamino)-piperidin-1-yl]-quinoline], for which the viability at 4 µM came to 78.9% in experiment [1]; 60.9% in experiment [2]; 74.6% in experiment [3]; 81.5% in experiment [4]; 76.3% in experiment [5]; 79.6% in experiment [6]. For the same compound, the viability at 10 µM is 52.6% in experiment [1]; 0.3% in experiment [2]; 0.4% in experiment [3]; 0.3% in experiment [4]; 0.3% in experiment [5]; 31% in experiment [6].

Regarding `CC(C)OC1CCN(c2cc(NCc3ccc(Cl)cc3)nc3ccccc23)CC1` [Compound 2918, 2-(4-chlorobenzylamino)-4-[4-(iso-propoxy)-piperidin-1-yl]-quinoline hydrochloride], the EC50 was in the range of 0.5 to 5 µM in experiment [1]; 0.5 to 5 µM in experiment [2]; 5 to 10 µM in experiment [3]; 5 to 10 µM in experiment [4]; 5 to 10 µM in experiment [5]; 0.5 to 5 µM in experiment [6].

Consider `Cc1ccnc(Nc2ccc(Nc3nc4ccccc4c(N4CCC(NC(C)(C)C)CC4)c3C)cc2)n1` [Compound 532Me, 2-[4-(4-methylpyrimidin-2-ylamino)phenylamino]-3-methyl-4-(4-tert-butylaminopiperidin-1-yl)quinoline], for which the viability at 4 µM came to 65.5% in experiment [1]; 16% in experiment [2]; 0.3% in experiment [3]; 55.9% in experiment [4]; 23.3% in experiment [5]; 12.3% in experiment [6]. The viability at 10 µM in experiment [1] is 0.4%; in experiment [2], 0.3%; in experiment [3], 0.3%; in experiment [4] it was 0.5%; in experiment [5], 0.3%; in experiment [6] it was 0.3%.

In the case of `CC(C)(C)NC1CCN(c2c(C#N)c(Nc3ccc(Cl)cc3)nc3ccccc23)CC1` [Compound 3258CN, 2-(4-chlorophenylamino)-3-cyano-4-[4-(tert-butylamino)piperidin-1-yl]quinoline], the viability at 4 µM in experiment [1] is 79.8%; in experiment [2], 0.7%; in experiment [3], 4.4%; in experiment [4], 73.8%; in experiment [5] it was 9.7%; in experiment [6], 44.3%. The viability at 10 µM in experiment [1] amounted to 1%; in experiment [2], 0.6%; in experiment [3], 0.7%; in experiment [4], 1.8%; in experiment [5], 0.8%; in experiment [6] it was 0.8%. In addition, the EC50 in experiment [1], in experiment [2], in experiment [3], in experiment [4], in experiment [5] and in experiment [6] was 0.5 to 5 µM in each case.

As for `O[C@H]1CCN(c2cc(NCc3ccc(Cl)cc3)nc3ccccc23)C1` [Compound 3060, (3S) 2-(4-chlorobenzylamino)-4-(3-hydroxypyrrolidin-1-yl)-quinoline hydrochloride], the EC50 in experiment [1] lay within 0.5 to 5 µM; in experiment [2] it was 0.5 to 5 µM; in experiment [3] it was 5 to 10 µM; in experiment [4], 0.5 to 5 µM; in experiment [5] it was 0.5 to 5 µM; in experiment [6], 0.5 to 5 µM.

Take `Clc1ccc(CNc2cc(N3CC[C@@H](Oc4ccccc4)C3)c3ccccc3n2)cc1` [Compound 3012, (3R) 2-(4-chlorobenzylamino)-4-[3-(phenoxy)pyrrolidin-1-yl]quinoline hydrochloride]: the half-maximal effective concentration (EC50) in experiment [1], in experiment [2], in experiment [3], in experiment [4], in experiment [5] and in experiment [6] was 0.5 to 5 µM throughout.

For `Clc1ccc(CNc2cc(N3CC[C@H](Oc4ccccn4)C3)c3ccccc3n2)cc1` [Compound 3098, (3S) 2-(4-chlorobenzylamino)-4-[3-(pyridin-2-yloxy)pyrrolidin-1-yl]quinoline hydrochloride], the half-maximal effective concentration (EC50) in experiment [1], in experiment [2], in experiment [3], in experiment [4], in experiment [5] and in experiment [6] was 0.5 to 5 µM each time.

Take `N#Cc1c(NCc2ccc(Cl)cc2)nc2ccccc2c1N1CCC(Oc2ccccc2)C1` (stereo not drawn) [Compound 3330CN, 2-(4-chlorobenzylamino)-3-cyano-4-(3-phenoxypyrrolidin-1-yl)quinoline]: the viability at 4 µM in experiment [1] was 102%; in experiment [2] it was 76.8%; in experiment [3] it was 30.4%; in experiment [4] it was 70.6%; in experiment [5], 92.9%; in experiment [6], 99.4%. The viability at 10 µM was found to be 93.6% in experiment [1]; 49.7% in experiment [2]; 19% in experiment [3]; 33.7% in experiment [4]; 82.4% in experiment [5]; 80.4% in experiment [6].

Take `COC[C@@H]1CCCN1c1cc(NCc2ccc(Cl)cc2)nc2ccccc12` [Compound 2310, (2S) 2-(4-chlorobenzylamino)-4-[2-(methoxymethyl)pyrrolidin-1-yl]quinoline, hydrochloride]: the EC50 in experiment [1] was 0.5 to 5 µM; in experiment [2], 0.5 to 5 µM; in experiment [3], 5 to 10 µM; in experiment [4], 0.5 to 5 µM; in experiment [5] it was 0.5 to 5 µM; in experiment [6] it was 0.5 to 5 µM.

As to `COc1ccc(OC2CCCN(c3c(C#N)c(NCc4ccc(Cl)cc4)nc4ccccc34)C2)cc1` (stereo not drawn) [Compound 3232CN, 2-(4-chlorobenzylamino)-3-cyano-4-[3-(4-methoxyphenoxy)piperidin-1-yl]quinoline], the viability at 4 µM in experiment [1] turned out to be 91.1%; in experiment [2] it was 93.9%; in experiment [3], 79.9%; in experiment [4] it was 98.7%; in experiment [5], 104%; in experiment [6], 79.9%. Further, the viability at 10 µM in experiment [1] is 99.8%; in experiment [2], 82.9%; in experiment [3] it was 73.5%; in experiment [4], 90.3%; in experiment [5], 99.4%; in experiment [6] it was 72.3%.

Turning to `Cc1c(F)ccc2c(N3CCC(NC(C)(C)C)CC3)cc(NCc3ccc(Cl)cc3)nc12` [Compound 572, 2-(4-chlorobenzylamino)-4-[4-(tert-butylamino)piperidin-1-yl]-7-fluoro-8-methylquinoline], the concentration for a half-maximal effect (EC50) in experiment [1], in experiment [2], in experiment [3], in experiment [4], in experiment [5] and in experiment [6] was 0.5 to 5 µM each time.

Take `O[C@@H]1CCN(c2cc(NCc3ccc(Cl)cc3)nc3ccccc23)C1` [Compound 2988, (3R) 2-(4-chlorobenzylamino)-4-(3-hydroxypyrrolidin-1-yl)quinoline hydrochloride]: the EC50 in experiment [1] was in the range of 0.5 to 5 µM; in experiment [2], 5 to 10 µM; in experiment [3], 0.5 to 5 µM; in experiment [4], 0.5 to 5 µM; in experiment [5], 0.5 to 5 µM; in experiment [6] it was 0.5 to 5 µM.
